Data reported in patent publication US6773892B1, “Methods of identifying and determining the effectiveness of therapeutic processes or agents for the treatment of schizophrenia and related disorders” (Northeastern University, priority 1997, dated 2004).
Where two headings read alike, the source gives them in different places.

Tests used:
[1] = target: T1, D4 receptor (Homo sapiens, UniProt P21917); assay: [14C] formate-labelled phospholipid methylation in CHO/D4 cells; format: cell-based; conditions: absence of agonist
T1 construct: expressed in transfected cells; host or cells: CHO cells
T1 sequence (P21917 1-419): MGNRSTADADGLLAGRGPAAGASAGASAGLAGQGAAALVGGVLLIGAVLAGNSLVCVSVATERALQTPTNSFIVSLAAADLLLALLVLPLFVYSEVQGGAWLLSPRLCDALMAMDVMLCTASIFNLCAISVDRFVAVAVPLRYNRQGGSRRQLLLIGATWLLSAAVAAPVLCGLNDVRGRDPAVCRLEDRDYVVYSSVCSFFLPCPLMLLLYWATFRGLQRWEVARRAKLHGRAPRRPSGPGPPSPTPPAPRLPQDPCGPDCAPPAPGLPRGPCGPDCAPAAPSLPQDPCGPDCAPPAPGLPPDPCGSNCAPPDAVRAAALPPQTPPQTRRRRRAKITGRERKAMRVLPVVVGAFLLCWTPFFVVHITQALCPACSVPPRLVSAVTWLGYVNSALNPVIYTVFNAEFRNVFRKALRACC
Experimental: CHO cells transfected with the D4 receptor gene were fed with minimum essential medium (alpha modifications, with or without nucleosides) (pH 7.2) containing 2 mM L-glutamine, W/G418 antibiotic (400 mg/L), donor horse serum (2.5%), fetal bovine serum (2.5%), penicillin/streptomycin/fungizone (1%), CuSO4 (10^−6M). Cells (200,000 cells/well) were plated in 6-well- plates and placed in 5% CO2 incubator at 37° C.
Two-day-old confluent, cultured D4-transfected CHO cells were used for assay. The pH of Hank's balanced buffer (HBSS) was adjusted to pH 7.4 using sodium bicarbonate buffer. [^14C]-formic acid (1 μCi/ml) and pharmacological agents were added to HBSS. Feeding medium was removed from the well and then 600 μl of the HBSS solution with the radiolabelled formic acid (warmed to 37° C.) was added to each well of 6-well-plates. Plates were incubated at 37° C. for 30 minutes in the culture incubator. The reaction was stopped by washing once with ice-cold PBS (pH 7.4) and, after aspirating off the HBSS, 500 μl of 10% trichloroacetic acid (TCA) was added. Cells were harvested by scraping with a cell scraper and transferred into a plastic microcentrifuge tube. […] CPM values were normalized to the protein content of each sample and expressed as the mean +/− S.E.M. for the group. Differences between groups were analyzed by a t-test with p<0.05 as the criterion for significance.

[2] = target: T2, dopamine D4 receptors (Homo sapiens, UniProt P21917); conditions: Schlacter et al., Soc. Neurosci. Abstr. 1995; read-out: reported KD; cited from earlier work
T2 sequence (P21917 1-419): T1 sequence (P21917 1-419)

[3] = tested on: lymphocytes; conditions: for stimulation of phospholipid methylation: dopamine (10 μM) and GTP (1 μM); for inhibition of phospholipid methylation below basal: haloperidol 1 μM with dopamine/GTP
Text: In an early hypothesis (“the transmethylation hypothesis”), a defect resulting in the formation of hallucinogens was proposed. […] To determine whether D4 receptor-dependent phospholipid methylation was altered in individuals with schizophrenia, males ages 27-70 with well documented schizophrenia by DSM-IV criteria, were studied and compared with normal controls.
To determine whether D4 receptor-dependent phospholipid methylation was altered in schizophrenia, the labelling of phospholipids by [^3H]-methyl-methionine in lymphocytes obtained from people with schizophrenia (as defined by DSM IV diagnostic criteria Diagnostic and Statistical Manual of Mental Disorders (4th Edition), American Psychiatric Association, Washington, D.C., […], pp. 759-764) under medical treatment) was measured as compared to lymphocytes from healthy controls. Lymphocytes were isolated as previously described (De La Rosa et al., J. Biol. Chem. 267:10699, 1992) and aliquots of 4×10^6 cells were resuspended in Hank's balanced salt solution containing 8 μCi/ml [^3H-methyl]methionine for 60 min. […] Incorporation of [^3H-methyl] label into phospholipids was determined as described in Example I.

[4] = tested on: SK-N-MC cells; conditions: SK-N-MC cells grown in the presence of nucleosides
[5] = lymphocytes of schizophrenia patients

## CC(C)Oc1cccnc1N(C)C1CCN(Cc2ccccc2)CC1 [U-101,958]
[1]; CHO/D4 cells grown in nucleoside-free medium
  effect on [14C] formate-labelled phospholipid methylation, FIG. 3b: dose-dependent inhibition
[1]; CHO/D4 cells, read-out: IC50 of inhibition of phospholipid methylation
  IC50: 200 pM
[2]
  Kd: 1000 pM

## NCCc1ccc(O)c(O)c1 [dopamine]
[3]; lymphocytes of normal controls
  stimulation of phospholipid methylation: 30%
[3]; [5]
  stimulation of phospholipid methylation: 165%
[4]
  effect on [14C] formate-labelled phospholipid methylation, FIG. 3c: dose-dependent dopamine stimulation

## O=C(CCCN1CCC(O)(c2ccc(Cl)cc2)CC1)c1ccc(F)cc1 [haloperidol]
[3]; both control and schizophrenia lymphocytes, dopamine 10 μM and GTP 1 mM, with or without haloperidol 1 μM
  effect on methyl incorporation into phospholipids, FIG. 4B: significant decrease
[3]; lymphocytes of normal controls
  inhibition of phospholipid methylation below basal: 25%
[3]; [5]
  inhibition of phospholipid methylation below basal: 39%
